According to patent publication US20130324461A1, “METHODS AND COMPOSITIONS FOR PREVENTING OR TREATING OBESITY” (priority 2010, published 2013):

Experiments:
Assay type in all cases: in vivo
[1] = Weight gain of mice on high-fat diet treated with various A2AR agonists (Example 5, FIG. 5); details: male C57BL/6 mice
Protocol: Mice receiving a high-fat diet were treated with the A2AR agonists 2-[4-(2-aminoethylaminocarbonylethyl)phenylethylamino]-5′-N-ethylcarboxamidoadenosine (APEC) bistrifluoroacetic acid or 2 5′-N-ethylcarboxamidoadenosine (NECA). Male C57BL/6 mice (n=5) were provided a high-fat diet beginning at day 0. Also beginning on day 0, the mice were treated with daily subcutaneous injection of A2AR agonist. APEC was administered at 0.25 mg/kg/day, and NECA at 0.02 mg/kg/day.

serum leptin = assay: Serum leptin levels by ELISA after A2AR agonist injection (Example 4, FIG. 4); details: 8 week old female C57BL/6 mice, 0.5 mg/kg s.c., after 1 and 2 h, p<0.05
Protocol: To elucidate the mechanism by which A2AR agonists reduce weight gain, serum leptin levels were quantified in mice treated with an A2AR agonist. 8 week old Female C57BL/6 mice received subcutaneous injection of the A2AR agonist CGS21680 (0.5 mg/kg). After 1 and 2 h, serum leptin levels were measured by ELISA. […] The data shown in FIG. 4 represent average±SD (n=4). The statistical significance was calculated by Student's t-test: *, p<0.05.

[2] = Body weight of mice on low-fat diet, treated or untreated with A2AR agonist CGS21680 (Example 3, FIG. 3 right panel)
Protocol: Mice were untreated or treated with the A2AR agonist CGS21680 (Tocris) at different time points. CGS21680 (Tocris) was injected s.c. at a dose of 0.5 mg/kg daily either from week 9 to week 13, from week 13 to week 19, or from week 9 to week 19, as indicated in the FIG. 3 legends. Male mice (8 mice per group) were fed a high-fat diet (where 60% of calories are derived from fat) or low-fat diet (where 10% of calories are derived from fat) and the weight of the mice was measured. Special diets were obtained from Research Diets (New Brunswick, N.J.). One group of mice received no A2AR agonist at all (represented by diamonds in the graphs of FIG. 4); another group of mice was received CGS21680 only from week 9 to 13 (triangles); another group of mice received CGS21680 only from week 13 to 19 (squares); another group of mice received CGS21680 from week 9 to 19 (crosses). […] Mice in the group that received no A2AR agonist at all (diamonds) gained a small amount of weight reaching up to ˜35 g by week 19. This is much less than the weight reached by mice on the high-fat diet (˜50 g). […] Mice that were not injected with from week 9 to 13 (squares) did gain weight by week 13.

[3] = Body weight of mice on high-fat diet, treated or untreated with A2AR agonist CGS21680 (Example 3, FIG. 3 left panel)
Protocol: Mice were untreated or treated with the A2AR agonist CGS21680 (Tocris) at different time points. CGS21680 (Tocris) was injected s.c. at a dose of 0.5 mg/kg daily either from week 9 to week 13, from week 13 to week 19, or from week 9 to week 19, as indicated in the FIG. 3 legends. Male mice (8 mice per group) were fed a high-fat diet (where 60% of calories are derived from fat) or low-fat diet (where 10% of calories are derived from fat) and the weight of the mice was measured. Special diets were obtained from Research Diets (New Brunswick, N.J.). One group of mice received no A2AR agonist at all (represented by diamonds in the graphs of FIG. 4); another group of mice was received CGS21680 only from week 9 to 13 (triangles); another group of mice received CGS21680 only from week 13 to 19 (squares); another group of mice received CGS21680 from week 9 to 19 (crosses). […] Some mice in the group that received no A2AR agonist at all (diamonds) almost doubled their weight between weeks 9 and 19, reaching up to 50 g total weight. […] Mice that were not injected from week 9 to 13 (squares) reached almost 40 g of weight by week 13.

## CCNC(=O)[C@H]1O[C@@H](n2cnc3c(N)nc(NCCc4ccc(CCC(=O)NCCN)cc4)nc32)[C@H](O)[C@@H]1O [APEC, 2-[4-(2-aminoethylaminocarbonylethyl)phenylethylamino]-5′-N-ethylcarboxamidoadenosine]
[1]; high-fat diet from day 0, daily s.c. 0.25 mg/kg/day
  weight gain compared to the control group: dramatic reduction in weight gain

## CCNC(=O)[C@H]1O[C@@H](n2cnc3c(N)nc(NCCc4ccc(CCC(=O)O)cc4)nc32)[C@H](O)[C@@H]1O [CGS21680, 3-[4-[2-[[6-amino-9-[(2R,3R,4S,5S)-5-(ethylcarbamoyl)-3,4-dihydroxy-oxolan-2-yl]purin-2-yl]amino]ethyl]phenyl]propanoic acid]
Serum leptin
  serum leptin levels: significantly increased
[2]; male mice, low-fat diet (10% of calories from fat), 0.5 mg/kg s.c. daily from week 9 to week 19
  weight gain: gained very little weight
[2]; male mice, low-fat diet, 0.5 mg/kg s.c. daily only from week 9 to 13
  weight gain until week 13: gained essentially no weight
[2]; male mice, low-fat diet, 0.5 mg/kg s.c. daily only from week 13 to 19
  further weight gain after start of injections: essentially no more weight gain
[2]; mice on low fat diet, 0.5 mg/kg s.c. daily
  effect on weight gain (overall statement): prevented or limited weight gain
[3]; male mice, high-fat diet (60% of calories from fat), 0.5 mg/kg s.c. daily from week 9 to week 19
  weight gain: gained little or no weight
[3]; male mice, high-fat diet, 0.5 mg/kg s.c. daily only from week 9 to 13
  weight gain between weeks 9 and 13: gained essentially no weight
[3]; male mice, high-fat diet, 0.5 mg/kg s.c. daily only from week 13 to 19
  further weight gain after start of injections: Essentially no further weight gain
[3]; mice treated continuously (week 9 to 19), regardless of high-fat or low-fat diet
  body weight gain: minimal

## CCNC(=O)[C@H]1O[C@@H](n2cnc3c(N)ncnc32)[C@H](O)[C@@H]1O [NECA, 5′-N-ethylcarboxamidoadenosine]
[1]; high-fat diet from day 0, daily s.c. 0.02 mg/kg/day
  weight gain compared to the control group: dramatic reduction in weight gain
